The assay has as its system Rhodopsin/VEGF transgenic mice. The assay can be described thus: Retinal/subretinal neovascularization in rho/VEGF transgenic mice (Study 3; GSA lectin, image analysis). The class given is in vivo, mouse. Conditions: s.c. b.i.d. for 7 days, 3 mg/kg/dose, vs vehicle. The procedure: Thirty (30) Rhodopsin/VEGF transgenic mice having constitutive expression of VEGF in their retinal neurons were divided into three equal groups. At day 14 post natal each group received subcutaneous injections as follows: Group 1 received 10 mg/kg/injection (high dose) of a compound from Table XXI; Group 2 received 3 mg/kg/injection (low dose) of a compound from Table XXI; and Group 3 received injections of vehicle. Each animal received two injections per day for 7 days.
At P21, mice were sacrificed; eyes were harvested and fixed in 10% PBS-buffered formalin for 2 hours at room temperature. […] After 3 washes with PBST, retinas were mounted and imaged by fluorescence microscopy. Areas of retinal neovascularization were assessed using image analysis software (ImagePro Plus 5). […]
Transgenic mice in which the rhodopsin promoter drives expression of VEGF in photoreceptors (rho/VEGF mice) have onset of VEGF expression at P7 and starting at P10 develop sprouts of neovascularization from the deep capillary bed of the retina that grow through the photoreceptor layer and form an extensive network of new vessels in the subretinal space. […] FITC conjugated GSA was used to stain the retinas at room temperature for 2 hours and then the retinas were flat mounted with the photoreceptor side up and examined by fluorescence microscopy. […]

Structures are written as SMILES.

On to `COC(=O)N[C@@H](Cc1ccccc1)C(=O)N[C@@H](Cc1ccc(NS(=O)(=O)O)cc1)c1csc(-c2cccs2)n1` [D91], for which the “neovascular tufts / new blood vessels in the retina at P21 (micrograph FIG. 3B)” value is reported as “marked reduction of neovascular tufts”.
